According to patent publication US20240209401A1, “CULTURE MEDIUM COMPOSITION FOR INCREASING GROWTH AND METABOLIC RATE OF ACETOGENIC STRAIN AND METHOD FOR CULTURING ACETOGENIC STRAIN USING THE SAME” (GWANGJU INSTITUTE OF SCIENCE AND TECHNOLOGY, priority 2022, published 2024):

Legend:
[1] = tested on: acetogen strain; test: Steady-state culture (dilution rate of 0.018/h) with CO and CO2 gas substrates; assay type: cell-based; details: methanol added
Excerpt: The method for culturing an acetogen strain may include a medium injection step of injecting the acetogen strain culture medium composition containing the C1 compound into a bioreactor; a strain inoculation step of inoculating the acetogenic strain into the culture medium composition; and a bioreactor driving step of culturing the acetogenic strain by driving the bioreactor. […]

[2] = tested on: acetogen strain; test: Growth inhibition by high methanol concentration in the medium; assay type: cell-based; details: with respect to the total medium composition
Excerpt: In this case, the methanol may be contained in a concentration of more than 0 M and 1.5 M or less with respect to the total medium composition.
If the concentration of methanol exceeds 1.5 M, it is not preferable because growth inhibition occurs due to the addition of a high concentration of organic solvent.

## CO [methanol]
[1]
  cell concentration in the steady state: 17.4 g/L
  cell conversion yield: 0.008 g DCW/mmol MeOH
[2]
  concentration of methanol at which growth inhibition occurs: exceeds 1.5 M
